Measurements taken from article PMC4979471 (Cell Death Discovery, 2015).
Where two headings read alike, the source gives them in different places.

How the values were obtained:
Assay in all cases: Kinase selectivity, P33-radiolabeled assay
Type in all cases: biochemical
MST4 = target: T1, MST4 (Homo sapiens, UniProt Q9P289); details: 10 μM ATP
T1 construct: purchased Reaction Biology Corp
In short: (§1)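 Activity relative to DMSO controls (%) was measured for compound at 10 μM. Assays ran at 10 μM ATP, in duplicate.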

IKKb/IKBKB = target: T2, IKKb/IKBKB (Homo sapiens, UniProt O14920); details: 10 μM ATP
T2 construct: purchased Reaction Biology Corp
T2 sequence (O14920 1-756): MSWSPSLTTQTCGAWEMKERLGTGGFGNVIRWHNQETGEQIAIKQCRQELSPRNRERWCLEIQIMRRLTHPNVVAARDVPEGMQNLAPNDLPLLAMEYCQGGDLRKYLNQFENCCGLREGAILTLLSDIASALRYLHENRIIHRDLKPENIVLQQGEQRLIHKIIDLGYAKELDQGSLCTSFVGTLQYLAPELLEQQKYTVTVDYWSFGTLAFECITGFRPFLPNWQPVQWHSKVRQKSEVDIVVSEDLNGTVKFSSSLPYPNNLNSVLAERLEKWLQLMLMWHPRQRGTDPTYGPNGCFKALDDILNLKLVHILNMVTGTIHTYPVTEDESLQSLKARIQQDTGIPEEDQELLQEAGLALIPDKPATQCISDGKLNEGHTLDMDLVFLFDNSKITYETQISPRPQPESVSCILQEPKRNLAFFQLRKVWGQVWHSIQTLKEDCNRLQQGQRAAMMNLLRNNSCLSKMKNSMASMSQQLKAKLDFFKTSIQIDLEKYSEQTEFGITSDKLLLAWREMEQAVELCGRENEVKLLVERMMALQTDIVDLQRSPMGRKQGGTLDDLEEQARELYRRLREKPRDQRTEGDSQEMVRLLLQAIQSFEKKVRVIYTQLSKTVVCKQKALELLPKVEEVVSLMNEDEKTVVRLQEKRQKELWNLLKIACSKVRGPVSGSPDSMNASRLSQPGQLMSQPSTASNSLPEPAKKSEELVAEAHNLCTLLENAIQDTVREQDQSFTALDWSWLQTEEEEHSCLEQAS
In short: as §1

IGF1R = target: T3, IGF1R (Homo sapiens, UniProt P08069)
T3 construct: purchased Reaction Biology Corp
In short: as §1

CSK = target: T4, CSK (Homo sapiens, UniProt P41240); details: 10 μM ATP
T4 construct: purchased Reaction Biology Corp
In short: as §1

FYN = target: T5, FYN (Homo sapiens, UniProt P06241); details: 10 μM ATP
T5 construct: purchased Reaction Biology Corp
In short: as §1

NEK2 = target: T6, NEK2 (Homo sapiens, UniProt P51955); details: 10 μM ATP
T6 construct: purchased Reaction Biology Corp
T6 sequence (P51955 1-445): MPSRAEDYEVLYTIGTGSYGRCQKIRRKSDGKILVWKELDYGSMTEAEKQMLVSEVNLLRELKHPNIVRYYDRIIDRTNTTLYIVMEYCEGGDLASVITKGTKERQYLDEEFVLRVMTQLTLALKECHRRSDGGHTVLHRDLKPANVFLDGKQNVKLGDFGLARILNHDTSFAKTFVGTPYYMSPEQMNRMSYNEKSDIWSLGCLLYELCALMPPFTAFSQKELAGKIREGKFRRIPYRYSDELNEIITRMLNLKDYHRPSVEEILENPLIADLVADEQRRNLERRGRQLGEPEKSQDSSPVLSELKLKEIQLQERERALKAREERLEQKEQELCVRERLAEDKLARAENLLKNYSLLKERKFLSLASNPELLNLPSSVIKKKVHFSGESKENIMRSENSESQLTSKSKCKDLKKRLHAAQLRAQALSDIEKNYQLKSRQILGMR
In short: as §1

CDK9/cyclin T1 = target: T7, CDK9/cyclin T1 (Homo sapiens, UniProt P50750); details: 10 μM ATP
T7 construct: purchased Reaction Biology Corp
In short: as §1

LYN B = target: T8, LYN B (Homo sapiens, UniProt P07948); details: 10 μM ATP
T8 construct: purchased Reaction Biology Corp
In short: as §1

RIPK5 = target: T9, RIPK5 (Homo sapiens, UniProt Q6XUX3); details: 10 μM ATP
T9 construct: purchased Reaction Biology Corp
T9 sequence (Q6XUX3 1-929): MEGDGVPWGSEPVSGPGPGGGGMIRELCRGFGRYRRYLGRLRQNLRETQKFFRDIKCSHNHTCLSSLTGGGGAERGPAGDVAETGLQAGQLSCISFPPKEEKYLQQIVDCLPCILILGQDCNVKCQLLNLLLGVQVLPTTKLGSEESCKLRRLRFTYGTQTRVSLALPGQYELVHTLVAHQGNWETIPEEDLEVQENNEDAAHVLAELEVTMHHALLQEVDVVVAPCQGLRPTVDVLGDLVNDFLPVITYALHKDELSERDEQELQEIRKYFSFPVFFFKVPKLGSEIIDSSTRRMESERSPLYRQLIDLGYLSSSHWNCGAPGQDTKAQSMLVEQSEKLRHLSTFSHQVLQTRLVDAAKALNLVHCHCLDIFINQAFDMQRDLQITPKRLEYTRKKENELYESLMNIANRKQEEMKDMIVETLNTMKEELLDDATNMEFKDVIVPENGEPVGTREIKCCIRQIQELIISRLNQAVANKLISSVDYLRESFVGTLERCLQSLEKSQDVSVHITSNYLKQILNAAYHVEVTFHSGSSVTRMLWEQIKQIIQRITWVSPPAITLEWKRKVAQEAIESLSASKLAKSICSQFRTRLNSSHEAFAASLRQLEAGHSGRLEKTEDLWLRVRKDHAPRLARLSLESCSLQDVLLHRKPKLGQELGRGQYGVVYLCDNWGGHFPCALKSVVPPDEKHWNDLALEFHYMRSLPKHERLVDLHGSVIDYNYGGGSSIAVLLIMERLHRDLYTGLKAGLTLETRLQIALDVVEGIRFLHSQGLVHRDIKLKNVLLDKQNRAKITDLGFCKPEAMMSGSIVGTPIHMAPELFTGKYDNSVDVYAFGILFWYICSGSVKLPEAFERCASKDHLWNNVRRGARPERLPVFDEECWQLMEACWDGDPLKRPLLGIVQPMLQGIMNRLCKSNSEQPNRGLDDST
In short: as §1

[1] = read-out: % Enzyme Activity (relative to DMSO controls) AVG
[2] = read-out: % Enzyme Activity (relative to DMSO controls) Data 1
[3] = read-out: % Enzyme Activity (relative to DMSO controls) Data 2

T4 sequence (P41240 whole entry): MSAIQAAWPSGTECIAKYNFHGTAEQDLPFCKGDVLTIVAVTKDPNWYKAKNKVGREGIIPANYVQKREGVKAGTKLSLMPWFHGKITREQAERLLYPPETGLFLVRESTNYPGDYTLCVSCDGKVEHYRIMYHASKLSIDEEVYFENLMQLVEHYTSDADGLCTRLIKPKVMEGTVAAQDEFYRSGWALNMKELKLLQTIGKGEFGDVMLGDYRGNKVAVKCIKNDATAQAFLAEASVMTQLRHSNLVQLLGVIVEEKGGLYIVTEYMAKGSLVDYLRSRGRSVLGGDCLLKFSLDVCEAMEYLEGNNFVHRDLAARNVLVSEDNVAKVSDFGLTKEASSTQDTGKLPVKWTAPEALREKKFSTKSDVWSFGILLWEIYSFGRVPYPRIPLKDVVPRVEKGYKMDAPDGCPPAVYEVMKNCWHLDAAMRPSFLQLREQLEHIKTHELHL
T5 sequence (P06241 whole entry): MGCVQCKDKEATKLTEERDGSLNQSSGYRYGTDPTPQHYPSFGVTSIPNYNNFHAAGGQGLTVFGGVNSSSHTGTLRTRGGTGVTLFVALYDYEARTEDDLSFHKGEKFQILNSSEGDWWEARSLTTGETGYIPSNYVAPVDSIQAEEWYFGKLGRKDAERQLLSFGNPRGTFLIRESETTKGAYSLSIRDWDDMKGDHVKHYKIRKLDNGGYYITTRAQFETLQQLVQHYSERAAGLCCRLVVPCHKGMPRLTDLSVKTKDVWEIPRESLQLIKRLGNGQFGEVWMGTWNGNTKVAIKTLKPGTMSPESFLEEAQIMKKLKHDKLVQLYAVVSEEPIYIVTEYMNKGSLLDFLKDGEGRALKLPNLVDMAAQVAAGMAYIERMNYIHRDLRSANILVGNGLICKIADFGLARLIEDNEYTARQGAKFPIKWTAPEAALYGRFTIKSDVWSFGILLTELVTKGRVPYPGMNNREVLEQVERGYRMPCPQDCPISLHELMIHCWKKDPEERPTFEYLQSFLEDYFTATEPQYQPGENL
T3 sequence (P08069 31-1367): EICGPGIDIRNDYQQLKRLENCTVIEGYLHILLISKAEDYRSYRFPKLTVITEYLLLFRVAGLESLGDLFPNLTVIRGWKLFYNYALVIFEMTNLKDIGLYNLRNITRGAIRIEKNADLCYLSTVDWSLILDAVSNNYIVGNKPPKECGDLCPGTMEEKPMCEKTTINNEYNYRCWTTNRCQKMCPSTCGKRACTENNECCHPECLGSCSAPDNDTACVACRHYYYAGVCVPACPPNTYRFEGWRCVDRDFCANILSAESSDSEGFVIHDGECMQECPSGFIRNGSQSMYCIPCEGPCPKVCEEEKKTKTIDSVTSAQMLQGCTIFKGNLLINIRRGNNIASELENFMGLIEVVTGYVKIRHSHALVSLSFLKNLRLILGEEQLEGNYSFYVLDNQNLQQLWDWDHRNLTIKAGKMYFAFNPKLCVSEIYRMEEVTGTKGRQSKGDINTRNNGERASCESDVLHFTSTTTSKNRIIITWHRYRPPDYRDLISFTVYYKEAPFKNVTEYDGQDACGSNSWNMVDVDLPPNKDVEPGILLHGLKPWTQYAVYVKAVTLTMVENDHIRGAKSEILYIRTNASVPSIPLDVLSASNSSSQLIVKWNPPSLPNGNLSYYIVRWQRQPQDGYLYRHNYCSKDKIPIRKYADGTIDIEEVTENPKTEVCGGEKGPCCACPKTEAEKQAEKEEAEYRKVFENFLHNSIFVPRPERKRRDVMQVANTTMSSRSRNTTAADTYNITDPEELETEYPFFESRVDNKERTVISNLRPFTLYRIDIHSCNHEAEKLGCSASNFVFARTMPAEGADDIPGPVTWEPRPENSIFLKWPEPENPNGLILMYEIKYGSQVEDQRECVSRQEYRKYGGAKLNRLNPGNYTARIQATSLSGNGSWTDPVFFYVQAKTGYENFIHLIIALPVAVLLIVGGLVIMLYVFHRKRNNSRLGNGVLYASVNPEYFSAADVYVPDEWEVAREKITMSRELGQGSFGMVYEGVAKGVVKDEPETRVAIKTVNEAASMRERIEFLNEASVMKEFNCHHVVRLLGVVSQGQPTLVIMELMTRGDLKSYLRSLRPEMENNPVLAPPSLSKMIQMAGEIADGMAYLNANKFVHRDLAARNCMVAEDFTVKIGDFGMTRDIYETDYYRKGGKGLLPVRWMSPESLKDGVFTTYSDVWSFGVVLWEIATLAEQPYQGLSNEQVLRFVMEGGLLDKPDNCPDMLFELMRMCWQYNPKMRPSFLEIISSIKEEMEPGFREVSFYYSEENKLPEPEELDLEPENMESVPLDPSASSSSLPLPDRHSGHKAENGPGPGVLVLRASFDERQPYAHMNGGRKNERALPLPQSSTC
T7 sequence (P50750 whole entry): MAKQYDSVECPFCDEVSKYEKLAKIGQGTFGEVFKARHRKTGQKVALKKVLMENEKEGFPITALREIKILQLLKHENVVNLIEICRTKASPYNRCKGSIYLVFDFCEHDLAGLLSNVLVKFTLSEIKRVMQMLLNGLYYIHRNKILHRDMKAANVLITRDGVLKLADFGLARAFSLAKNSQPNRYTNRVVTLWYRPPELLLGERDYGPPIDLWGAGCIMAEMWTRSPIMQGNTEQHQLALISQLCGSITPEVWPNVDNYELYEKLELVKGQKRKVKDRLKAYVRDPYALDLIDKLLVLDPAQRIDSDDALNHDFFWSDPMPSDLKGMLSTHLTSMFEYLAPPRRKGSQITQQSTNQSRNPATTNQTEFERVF
T7 sequence (O60563 whole entry partner): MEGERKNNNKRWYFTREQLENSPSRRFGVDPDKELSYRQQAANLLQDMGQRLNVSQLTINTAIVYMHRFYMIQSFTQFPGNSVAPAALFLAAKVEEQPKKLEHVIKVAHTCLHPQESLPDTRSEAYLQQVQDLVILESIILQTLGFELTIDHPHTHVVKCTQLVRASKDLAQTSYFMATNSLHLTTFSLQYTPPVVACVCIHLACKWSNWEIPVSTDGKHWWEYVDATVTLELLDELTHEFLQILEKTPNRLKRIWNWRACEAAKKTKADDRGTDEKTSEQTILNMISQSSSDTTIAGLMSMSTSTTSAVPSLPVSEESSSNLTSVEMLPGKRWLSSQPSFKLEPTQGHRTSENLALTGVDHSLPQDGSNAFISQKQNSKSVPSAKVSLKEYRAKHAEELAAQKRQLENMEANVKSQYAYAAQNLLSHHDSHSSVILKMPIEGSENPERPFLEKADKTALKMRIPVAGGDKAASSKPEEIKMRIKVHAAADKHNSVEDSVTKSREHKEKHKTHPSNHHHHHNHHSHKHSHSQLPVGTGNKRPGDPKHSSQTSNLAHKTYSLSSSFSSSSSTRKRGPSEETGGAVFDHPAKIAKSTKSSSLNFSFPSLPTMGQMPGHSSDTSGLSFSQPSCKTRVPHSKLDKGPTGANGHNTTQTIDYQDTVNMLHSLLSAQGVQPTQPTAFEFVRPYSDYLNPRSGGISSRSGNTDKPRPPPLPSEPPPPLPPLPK
T8 sequence (P07948 1-491 isoform P07948-2): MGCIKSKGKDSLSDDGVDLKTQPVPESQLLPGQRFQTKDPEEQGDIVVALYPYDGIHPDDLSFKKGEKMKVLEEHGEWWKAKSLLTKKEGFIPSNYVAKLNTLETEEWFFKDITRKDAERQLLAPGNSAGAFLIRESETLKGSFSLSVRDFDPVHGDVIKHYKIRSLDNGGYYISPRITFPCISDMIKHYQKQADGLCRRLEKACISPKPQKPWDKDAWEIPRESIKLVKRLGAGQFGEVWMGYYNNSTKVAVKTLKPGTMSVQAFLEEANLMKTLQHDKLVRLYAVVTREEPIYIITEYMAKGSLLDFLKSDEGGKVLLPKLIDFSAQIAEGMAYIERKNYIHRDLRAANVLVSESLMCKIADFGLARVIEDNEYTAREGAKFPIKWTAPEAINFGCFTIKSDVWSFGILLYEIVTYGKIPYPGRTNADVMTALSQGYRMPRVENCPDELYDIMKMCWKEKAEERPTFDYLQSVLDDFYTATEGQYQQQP
T1 sequence (Q9P289 whole entry): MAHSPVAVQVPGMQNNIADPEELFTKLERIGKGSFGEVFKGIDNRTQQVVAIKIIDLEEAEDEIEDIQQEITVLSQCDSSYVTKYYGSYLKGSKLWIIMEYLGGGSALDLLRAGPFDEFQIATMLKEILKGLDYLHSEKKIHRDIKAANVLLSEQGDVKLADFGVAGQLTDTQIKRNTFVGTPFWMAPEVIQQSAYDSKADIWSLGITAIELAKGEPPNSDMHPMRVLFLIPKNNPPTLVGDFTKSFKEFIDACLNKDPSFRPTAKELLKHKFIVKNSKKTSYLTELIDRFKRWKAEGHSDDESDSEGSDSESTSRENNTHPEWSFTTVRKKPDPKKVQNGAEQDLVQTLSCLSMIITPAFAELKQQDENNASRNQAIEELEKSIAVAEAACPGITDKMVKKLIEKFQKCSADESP

CC(C)(C)C(=O)N1N=CC[C@H]1c1ccccc1 [GSK′963]
remaining activity at 10 µM (MST4; [1]): 104% | remaining activity at 10 µM (MST4; [2]): 103% | remaining activity at 10 µM (MST4; [3]): 105% | remaining activity at 10 µM (IKKb/IKBKB; [1]): 111% | remaining activity at 10 µM (IKKb/IKBKB; [2]): 110% | remaining activity at 10 µM (IKKb/IKBKB; [3]): 112% | remaining activity at 10 µM (IGF1R; 10 uM, 10 μM ATP, read-out: % Enzyme Activity (relative to DMSO controls) AVG): 103% | remaining activity at 10 µM (IGF1R; 10 uM, 10 μM ATP, read-out: % Enzyme Activity (relative to DMSO controls) Data 2): 104% | remaining activity at 10 µM (IGF1R; [2]): 101% | remaining activity at 10 µM (CSK; [1]): 104% | remaining activity at 10 µM (CSK; [2]): 104% | remaining activity at 10 µM (CSK; [3]): 103% | remaining activity at 10 µM (FYN; [1]): 106% | remaining activity at 10 µM (FYN; [2]): 104% | remaining activity at 10 µM (FYN; [3]): 107% | remaining activity at 10 µM (NEK2; [1]): 107% | remaining activity at 10 µM (NEK2; [2]): 108% | remaining activity at 10 µM (NEK2; [3]): 106% | remaining activity at 10 µM (CDK9/cyclin T1; [1]): 108% | remaining activity at 10 µM (CDK9/cyclin T1; [2]): 112% | remaining activity at 10 µM (CDK9/cyclin T1; [3]): 105% | remaining activity at 10 µM (LYN B; [1]): 99.7% | remaining activity at 10 µM (LYN B; [2]): 103% | remaining activity at 10 µM (LYN B; [3]): 96% | remaining activity at 10 µM (RIPK5; [1]): 101% | remaining activity at 10 µM (RIPK5; [2]): 102% | remaining activity at 10 µM (RIPK5; [3]): 99.6%
